Laboratory results published in publication PMC8746705, “Comparison of Experimental Strategies to Study L-Type Amino Acid Transporter 1 (LAT1) Utilization by Ligands” (Molecules, 2021).

Experiment: Liver lysosomal accumulation after i.p. dose to mice
Format: in vivo
Settings: mouse liver; parent drug of the named prodrug
Description: Adult male mice weighing 25 ± 5 g were supplied by Envigo (Venray, Netherlands). Mice were housed in stainless steel cages on a 12 h light (07:00–19:00) and 12 h dark (19:00–07:00) cycle at an ambient temperature of 22 ± 1 °C with a relative humidity of 50–60%. All experiments were carried out during the light phase. Tap water and food pellets (Lactamin R36; Lactamin AB, Södertälje, Sweden) were available ad libitum. A dose of 25 µmol/kg of compound 1, 2, or 8–11 was given as a bolus injection (i.p.) to mice. The mice were decapitated at selected time points between (10–360 min) and brain tissues were collected for sample preparation to be analyzed by liquid chromatography-mass spectrometric (LC-MS/MS) analysis.
The liver lysosomal samples (10–120 min; tmax) were prepared by homogenizing the pre-weigh tissues with ice-cold 0.25 M sucrose (1:3). […] Samples were vortexed and centrifuged at 10,000× g at 4 °C for 10 min and injected to LC-MS/MS to quantify the total drug amount in tissue as a control to lysosomal samples. […] The concentration of compounds in the crude lysosomal fractions were then analyzed with LC-MS/MS. Both the total liver tissue accumulation as well as the lysosomal fraction (including the possibly released parent drugs) were calculated from the standard curve that was prepared by spiking known amounts of compounds to ACN, including the selected internal standard. […]

C[C@H](C(=O)Nc1cccc(C[C@H](N)C(=O)O)c1)c1cccc(C(=O)c2ccccc2)c1 [Compound 2]
Accumulation of parent drug (dosed as such) into crude lysosomal fraction, of total liver tissue accumulation: no parent drug was detected
